System: KRAS PDC tumor spheroids (HUVEC+MSC), viability
Experiment: Anticancer human tumor 254851-301-R-J1-PDC patient-derived colon carcinoma cell line growth inhibition [KRAS2]
Details: for IC50: curve of first compound; for viability, T/C: stronger effect = lower value
Excerpt: Multicellular complex tumor spheroid response to RAS pathway inhibitors in combination with a targeted agents in patient-derived cell lines with oncogenic KRAS variants from multiple cancer types
A high-throughput screen of multi-cell type tumor spheroids was designed to identify active combinations of targeted small molecules and KRAS pathway inhibitors. Complex spheroids include a stromal component modeled by human endothelial cells (HUVEC) and fibroblasts modeled by human mesenchymal stem cells (MSCs). The concentration ranges selected for each drug and investigational agent were based upon clinically achievable concentrations if the clinical Cmax of the agent was known.
Compounds. The drugs and investigational agents: BI-3406 (NSC825286), BAY-293 (NSC824723), batoprotafib (TNO155; NSC825523), sotorasib (AMG 510; NSC818433), MRTX1257 (NSC819558), elimusertib (BAY 1895344; NSC800525), molibresib (GSK525762; NSC774829), temuterkib (LY3214996; NSC803410), venetoclax (NSC766270), alisertib (NSC759677), olaparib (NSC753686), talazoparib (NSC767125), erdafitinib (NSC781556), ipatasertib (NSC767898), cabozantinib (NSC761068), nintedanib (NSC756659), abemaciclib (NSC768073), docetaxel (NSC628503), trametinib (NSC758246), and sapanisertib (NSC764658) were obtained from the National Cancer Institute (NCI) Developmental Therapeutics Program Chemical Repository. The FDA-approved anticancer drug set is available from the Developmental Therapeutics Program. […] The stock solutions were prepared in dimethyl sulfoxide (DMSO, Sigma-Aldrich, St. Louis, MO, cat. D2650) at 800-fold the tested concentration and stored at -70 degrees C prior to their use. All drugs and investigational agents were tested over a range starting from a high concentration at or near the clinical Cmax and decreasing in half-log increments. If the clinical Cmax for an agent had not been determined, the highest concentration tested was 10 microM.
Cell Culture. All cells were maintained in an incubator at 37 degrees C and 5% CO2 with 95% humidity. The PDC lines were cultured according to standard operating procedures established by the NCI PDMR (https://pdmr.cancer.gov/sops/default.htm). Briefly, all PDCs were thawed and cultured in Matrigel-coated flasks prepared with a working solution of 1X Ham's F-12 nutrient mix, without supplementation (Invitrogen, Waltham, MA, cat. 11765054), 100 U/mL penicillin-streptomycin (Invitrogen, cat. 15140122), and 2.5% Matrigel (Corning Inc., Corning, NY, cat. 354248) for the first three passages. All PDCs were cultured in complete DMEM/F-12 media containing advanced DMEM/F-12 (Invitrogen, cat. 12634028), 4.9% defined fetal bovine serum, heat inactivated (HyClone Laboratories Inc., Logan, UT, cat. SH30070.03HI), 389 ng/mL hydrocortisone (Sigma-Aldrich, cat. H4001), 9.7 ng/mL human EGF recombinant protein (Invitrogen, cat. PHG0313), 23.4 microg/mL adenine (Sigma-Aldrich, cat. A2786), 97.3 U/mL penicillin-streptomycin (Invitrogen, cat. 15140122), 1.9 mM L-glutamine (Invitrogen, cat. 25030081), and 9.7 microM Y-27632 dihydrochloride (Tocris Bioscience, Bristol, United Kingdom, cat. 1254). The PDCs were cultured in complete DMEM/F12 media without 9.7 microM Y-27632 dihydrochloride for at least two passages prior to the screen. The established cell line HOP-62 was cultured in RPMI 1640 medium, HEPES (Invitrogen, cat. 22400105) with 10% defined fetal bovine serum (HyClone Laboratories Inc., cat. SH30070.03) and 2 mM L-glutamine (Invitrogen, cat. 25030081). The pooled donor HUVEC were cultured in endothelial cell growth medium 2 (PromoCell, Heidelberg, Germany, cat. C-22011) and the hMSC were cultured in mesenchymal stem cell growth medium 2 (PromoCell, cat. C-28009). For all experiments, HUVEC and hMSC were used at passages </=5, while the malignant cell lines were used at passages </=15. […]

[1] = second compound 0.1 µM, first compound 0.0316 µM
[2] = second compound 0.1 µM, first compound 0.1 µM
[3] = second compound 0.1 µM, first compound 0.316 µM
[4] = second compound 0.1 µM, first compound 1 µM
[5] = second compound 0.1 µM, first compound 3.16 µM
[6] = second compound 0.1 µM, first compound 10 µM
[7] = second compound 0.316 µM, first compound 0.0316 µM
[8] = second compound 0.316 µM, first compound 0.1 µM
[9] = second compound 0.316 µM, first compound 0.316 µM
[10] = second compound 0.316 µM, first compound 1 µM
[11] = second compound 0.316 µM, first compound 3.16 µM
[12] = second compound 0.316 µM, first compound 10 µM
[13] = second compound 1 µM, first compound 0.0316 µM
[14] = second compound 1 µM, first compound 0.1 µM
[15] = second compound 1 µM, first compound 0.316 µM
[16] = second compound 1 µM, first compound 1 µM
[17] = second compound 1 µM, first compound 3.16 µM
[18] = second compound 1 µM, first compound 10 µM
[19] = second compound 3.16 µM, first compound 0.0316 µM
[20] = second compound 3.16 µM, first compound 0.1 µM
[21] = second compound 3.16 µM, first compound 0.316 µM
[22] = second compound 3.16 µM, first compound 1 µM
[23] = second compound 3.16 µM, first compound 3.16 µM
[24] = second compound 3.16 µM, first compound 10 µM
[25] = second compound 10 µM, first compound 0.0316 µM
[26] = second compound 10 µM, first compound 0.1 µM
[27] = second compound 10 µM, first compound 0.316 µM
[28] = second compound 10 µM, first compound 1 µM
[29] = second compound 10 µM, first compound 3.16 µM
[30] = second compound 10 µM, first compound 10 µM
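Note: spheroids exposed to compounds for seven days before readout.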
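Throughout, for viability, T/C: 100% = DMSO vehicle control luminescence of the spheroids.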

| Compound | IC50 (second compound 0.1 µM) [nM] | IC50 (second compound 0.316 µM) [nM] | IC50 (second compound 1 µM) [nM] | IC50 (second compound 3.16 µM) [nM] | viability, T/C [1] [%] | viability, T/C [2] [%] | viability, T/C [3] [%] | viability, T/C [4] [%] | viability, T/C [5] [%] | viability, T/C [7] [%] | viability, T/C [8] [%] | viability, T/C [9] [%] | viability, T/C [10] [%] | viability, T/C [11] [%] | viability, T/C [13] [%] | viability, T/C [14] [%] | viability, T/C [15] [%] | viability, T/C [16] [%] | viability, T/C [17] [%] | viability, T/C [19] [%] | also measured |
| --- | --- | --- | --- | --- | --- | --- | --- | --- | --- | --- | --- | --- | --- | --- | --- | --- | --- | --- | --- | --- | --- |
| CC1OCC2(CCN(c3cnc(Sc4ccnc(N)c4Cl)c(N)n3)CC2)C1N (stereo not given) + C=CC(=O)N1CCN(c2nc(=O)n(-c3c(C)ccnc3C(C)C)c3nc(-c4c(O)cccc4F)c(F)cc23)C(C)C1 | > 10000 | > 10000 | > 10000 | > 10000 | 95 | 91 | 81.6 | 60.2 | 67.2 | 78 | 99.2 | 75.4 | 71.4 | 60.5 | 94.6 | 84.7 | 76.3 | 74.1 | 67.8 | 92.6 | IC50 (second compound 10 µM): > 10000 nM; viability, T/C [6]: 61.9%; viability, T/C [12]: 68.7%; viability, T/C [18]: 67.5%; viability, T/C [20]: 71.1%; viability, T/C [21]: 81.5%; viability, T/C [22]: 63.9%; viability, T/C [23]: 72.2%; viability, T/C [24]: 65.6%; viability, T/C [25]: 80.7%; viability, T/C [26]: 70.8%; viability, T/C [27]: 58.9%; viability, T/C [28]: 55.6%; viability, T/C [29]: 56%; viability, T/C [30]: 66.3% |
| Cn1nccc1Nc1nccc(-c2cc3c(s2)C(C)(C)N(CCN2CCOCC2)C3=O)n1 + C=CC(=O)N1CCN(c2nc(=O)n(-c3c(C)ccnc3C(C)C)c3nc(-c4c(O)cccc4F)c(F)cc23)C(C)C1 | 2760 | 3750 | 2570 | 1910 | 87.5 | 94.5 | 94.5 | 96.8 | 44.1 | 102 | 92.2 | 102 | 88 | 58.2 | 95.5 | 91.2 | 91.9 | 79.5 | 43.5 | 73.7 | IC50 (second compound 10 µM): 3100 nM; viability, T/C [6]: 4.13%; viability, T/C [12]: 4.04%; viability, T/C [18]: 5.08%; viability, T/C [20]: 82.7%; viability, T/C [21]: 78.6%; viability, T/C [22]: 77.6%; viability, T/C [23]: 28.6%; viability, T/C [24]: 3.74%; viability, T/C [25]: 97.1%; viability, T/C [26]: 97.1%; viability, T/C [27]: 79.7%; viability, T/C [28]: 74.9%; viability, T/C [29]: 51.5%; viability, T/C [30]: 4.35% |
| CC(=O)OC12COC1CC(O)C1(C)C(=O)C(O)C3=C(C)C(OC(=O)C(O)C(NC(=O)OC(C)(C)C)c4ccccc4)CC(O)(C(OC(=O)c4ccccc4)C21)C3(C)C (stereo not given) + C=CC(=O)N1CCN(c2nc(OCC3CCCN3C)nc3c2CCN(c2cccc4cccc(C)c24)C3)CC1CC#N | 198 | 163 | 140 | 203 | 91.2 | 61.4 | 43 | 27.3 | 25.6 | 88 | 60.8 | 35.4 | 26.5 | 24.3 | 94.5 | 56.2 | 34 | 24.4 | 22.9 | 86.7 | IC50 (second compound 0.0316 µM): 206 nM; viability, T/C (second compound 0.0316 µM, first compound 0.01 µM): 102%; viability, T/C (second compound 0.0316 µM, first compound 0.0316 µM): 95.9%; viability, T/C (second compound 0.0316 µM, first compound 0.1 µM): 69.3%; viability, T/C (second compound 0.0316 µM, first compound 0.316 µM): 38.4%; viability, T/C (second compound 0.0316 µM, first compound 1 µM): 29%; viability, T/C (second compound 0.0316 µM, first compound 3.16 µM): 26.1%; viability, T/C (second compound 0.1 µM, first compound 0.01 µM): 99.1%; viability, T/C (second compound 0.316 µM, first compound 0.01 µM): 98.1%; viability, T/C (second compound 1 µM, first compound 0.01 µM): 93%; viability, T/C (second compound 3.16 µM, first compound 0.01 µM): 94.3%; viability, T/C [20]: 69.1%; viability, T/C [21]: 38.5%; viability, T/C [22]: 24.2%; viability, T/C [23]: 23.7% |

— PubChem BioAssay AID1963868 (Molecular Pharmacology Branch, DTP, NCI, 2024)
